Reference: PubChem BioAssay (NCI)
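Compound exposure: 48 hours, 5 concentrations, 96-well plates. At the TGI there is no net growth.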 Where a SMILES comes first, the peptide text is derived from it. [ ]: non-standard residue; d: D form. Ac5c = NC1(C(=O)O)CCCC1

Assays:
Test in all cases: NCI-60 cell line screen, 48 h
786-0 renal = test system: 786-0 renal
A549 NSCLC = test system: A549 NSCLC
ACHN renal = test system: ACHN renal
CAKI-1 renal = test system: CAKI-1 renal
CCRF-CEM leukemia = test system: CCRF-CEM leukemia
COLO 205 colon = test system: COLO 205 colon
DU-145 prostate = test system: DU-145 prostate
EKVX NSCLC = test system: EKVX NSCLC
HCC-2998 colon = test system: HCC-2998 colon
HCT-116 colon = test system: HCT-116 colon
HCT-15 colon = test system: HCT-15 colon
HL-60(TB) leukemia = test system: HL-60(TB) leukemia
HOP-62 NSCLC = test system: HOP-62 NSCLC
HOP-92 NSCLC = test system: HOP-92 NSCLC
HS 578T breast = test system: HS 578T breast
HT29 colon = test system: HT29 colon
IGROV1 ovarian = test system: IGROV1 ovarian
K-562 leukemia = test system: K-562 leukemia
KM12 colon = test system: KM12 colon
LOX IMVI melanoma = test system: LOX IMVI melanoma
M14 melanoma = test system: M14 melanoma
MALME-3M melanoma = test system: MALME-3M melanoma
MCF7 breast = test system: MCF7 breast
MDA-MB-435 = test system: MDA-MB-435
MDA-N = test system: MDA-N
MOLT-4 leukemia = test system: MOLT-4 leukemia
NCI-H23 lung = test system: NCI-H23 lung
NCI-H460 lung = test system: NCI-H460 lung
NCI-H522 lung = test system: NCI-H522 lung
NCI/ADR-RES ovarian = test system: NCI/ADR-RES ovarian
OVCAR-3 ovarian = test system: OVCAR-3 ovarian
OVCAR-4 ovarian = test system: OVCAR-4 ovarian
OVCAR-5 ovarian = test system: OVCAR-5 ovarian
OVCAR-8 ovarian = test system: OVCAR-8 ovarian
PC-3 prostate = test system: PC-3 prostate
RPMI-8226 leukemia = test system: RPMI-8226 leukemia
SF-268 CNS = test system: SF-268 CNS
SF-295 CNS = test system: SF-295 CNS
SK-MEL-2 melanoma = test system: SK-MEL-2 melanoma
SK-MEL-28 melanoma = test system: SK-MEL-28 melanoma
SK-MEL-5 melanoma = test system: SK-MEL-5 melanoma
SK-OV-3 ovarian = test system: SK-OV-3 ovarian
SN12C renal = test system: SN12C renal
SNB-19 CNS = test system: SNB-19 CNS
SNB-75 CNS = test system: SNB-75 CNS
SR leukemia = test system: SR leukemia
SW-620 colon = test system: SW-620 colon
T-47D breast = test system: T-47D breast
TK-10 renal = test system: TK-10 renal
U251 CNS = test system: U251 CNS
UACC-257 melanoma = test system: UACC-257 melanoma
UACC-62 melanoma = test system: UACC-62 melanoma
UO-31 renal = test system: UO-31 renal
MDA-MB-231 breast = test system: MDA-MB-231 breast
SF-539 CNS = test system: SF-539 CNS
A498 renal = test system: A498 renal
BT-549 breast = test system: BT-549 breast
NCI-H226 lung = test system: NCI-H226 lung
RXF 393 renal = test system: RXF 393 renal

Measured: TGI

CC(=O)c1c2c(cc3c1CC1(C3)Cc3cc4c(c(C(=O)O)c3C1)CCCC4)CCCC2 (stereo unspecified) (tested in a mixture with another compound)
60.5 µM: SK-MEL-2 melanoma
72.4 µM: HCT-116 colon
40.6 µM: UO-31 renal
89.3 µM: RPMI-8226 leukemia
44.6 µM: HOP-62 NSCLC
53.8 µM: SR leukemia
39.7 µM: HOP-92 NSCLC
53.6 µM: NCI-H460 lung
72.6 µM: U251 CNS
48.7 µM: OVCAR-3 ovarian
68.4 µM: COLO 205 colon
54.9 µM: HL-60(TB) leukemia
94.6 µM: CCRF-CEM leukemia
74.3 µM: UACC-257 melanoma
93.6 µM: HCC-2998 colon
96.2 µM: M14 melanoma
43.9 µM: MOLT-4 leukemia
59.7 µM: KM12 colon
63.7 µM: SK-MEL-5 melanoma
not listed: MDA-MB-231 breast | SF-539 CNS | A498 renal | BT-549 breast | NCI-H226 lung | RXF 393 renal
> 100 µM: all other assays above

COC(=O)C1(NC(=O)C(C)NC(=O)C(CCCCN)NC(=O)C(CC(C)C)NC(C)=O)CCCC1 (stereo unspecified) (Ac-LKA[Ac5c]-OMe; configuration not given here)
not listed: CAKI-1 renal | DU-145 prostate | HOP-92 NSCLC | LOX IMVI melanoma | MALME-3M melanoma | NCI-H23 lung | NCI/ADR-RES ovarian | OVCAR-3 ovarian | OVCAR-4 ovarian | OVCAR-5 ovarian | SK-MEL-2 melanoma | U251 CNS | UACC-62 melanoma | A498 renal | BT-549 breast | NCI-H226 lung | RXF 393 renal
> 100 µM: all other assays above

CCOC(=O)/C(C#N)=C/c1ccc(SCc2ccco2)c([N+](=O)[O-])c1
not listed: HCT-15 colon | T-47D breast | TK-10 renal
> 100 µM: all other assays above
